Results published in article PMC2442655, “Structure-Activity Relationship and Substrate-Dependent Phenomena in Effects of Ginsenosides on Activities of Drug-Metabolizing P450 Enzymes” (PLoS ONE, 2008).
Where a name gives a salt, the structure may show the parent alone. Read-outs that look alike come from different tables or passages of the source.

Assays:
[1] = target: T1, CYP2C9 (Homo sapiens, UniProt P11712); test: Vivid CYP2C9 red fluorescent assay; assay type: in vitro ADME; details: for inhibition at 30 min, 50 µM: human
T1 construct: purchased Invitrogen Corporation
Description: In brief, the assays were carried out in Costar® black-wall 96-well plates with ultra thin clear bottoms (Corning Inc, Corning, NY, USA) in a kinetic assay mode. […] For each well, 40 µL of solution of test compounds or vehicle was incubated with 50 µL pre-mixture (mixture of BACULOSOMES® reagent, regeneration system and reaction buffer) at 37°C for 20 min. […] The final methanol volume in the reaction was less than or equal to 1%.

[2] = target: T2, CYP1A2 (Homo sapiens, UniProt P05177); test: Vivid CYP1A2 blue fluorescent assay; details: for IC50: IC50 CYP1A2 blue, cDNA-expressed enzyme, Vivid blue substrate 3 µM; for inhibition at 30 min, 50 µM: human
T2 sequence (P05177 1-516): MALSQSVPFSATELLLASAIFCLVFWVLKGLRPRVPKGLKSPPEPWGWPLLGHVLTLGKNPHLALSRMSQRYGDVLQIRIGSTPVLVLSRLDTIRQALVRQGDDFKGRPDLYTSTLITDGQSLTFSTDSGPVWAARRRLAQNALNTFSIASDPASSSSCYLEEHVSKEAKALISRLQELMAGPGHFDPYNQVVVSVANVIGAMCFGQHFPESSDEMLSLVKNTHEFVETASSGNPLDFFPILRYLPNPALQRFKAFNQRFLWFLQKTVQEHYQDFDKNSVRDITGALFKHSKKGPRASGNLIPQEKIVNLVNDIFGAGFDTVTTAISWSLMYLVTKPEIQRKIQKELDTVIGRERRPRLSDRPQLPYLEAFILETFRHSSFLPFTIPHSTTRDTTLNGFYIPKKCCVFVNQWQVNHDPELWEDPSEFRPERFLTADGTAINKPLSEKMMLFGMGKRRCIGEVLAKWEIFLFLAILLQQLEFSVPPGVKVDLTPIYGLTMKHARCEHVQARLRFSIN
Description: (§1) The inhibition of the catalytic activities of cDNA-expressed human P450 enzymes by ginsenosides was determined using Vivid® P450 screening kits (CYP1A2 blue, CYP2C9 red, CYP2C19 blue, CYP2D6 blue, CYP3A4 green and red) according to the manufacturer's instructions (Invitrogen Corporation; Carlsbad, CA, USA).
(§2) In brief, the assays were carried out in Costar® black-wall 96-well plates with ultra thin clear bottoms (Corning Inc, Corning, NY, USA) in a kinetic assay mode. Stock solutions (10 mM) of ginsenosides in methanol were prepared and diluted to various concentrations (2.5× 100, 50, 10, 5, 1 µM). For each well, 40 µL of solution of test compounds or vehicle was incubated with 50 µL pre-mixture (mixture of BACULOSOMES® reagent, regeneration system and reaction buffer) at 37°C for 20 min. The reaction was initiated by adding 10 µL of a mixture of substrate and NADP^+ per well with a respective concentration of Vivid® substrate (Table 1). The plate was read immediately for fluorescence changes every 0.5 min at 37°C for 30 min using a FlexStation II384 fluorometric plate reader (Molecular Devices, Sunnyvale, CA, USA) with respective excitation and emission wavelengths for each P450 enzyme (Table 1). The final methanol volume in the reaction was less than or equal to 1%.

[3] = target: T3, CYP3A4 (Homo sapiens, UniProt P08684); test: Vivid CYP3A4 red fluorescent assay; details: for inhibition at 30 min, 50 µM: human, recombinant (cDNA-expressed) CYP3A4 BACULOSOMES, probe Vivid red substrate 3 µM
Description: as §1, §2

[4] = target: CYP2C19 (Homo sapiens, UniProt P33261); test: Vivid CYP2C19 blue fluorescent assay; details: for inhibition at 30 min, 50 µM: human
Description: as §1, §2

[5] = target: T3, CYP3A4; test: Vivid CYP3A4 green fluorescent assay; details: for inhibition at 30 min, 50 µM: human
Description: as §1, §2

[6] = target: CYP2D6 (Homo sapiens, UniProt P10635); test: Vivid CYP2D6 blue fluorescent assay; details: for inhibition at 30 min, 50 µM: human
Description: as §1, §2

[7] = cDNA-expressed enzyme, Vivid red substrate 2 µM, maximum concentration 50 µM, read-out: IC50 CYP2C9 red
[8] = recombinant (cDNA-expressed) CYP2C9 BACULOSOMES, probe Vivid red substrate 2 µM
[9] = recombinant (cDNA-expressed) CYP2C19 BACULOSOMES, probe Vivid blue substrate 10 µM
[10] = recombinant (cDNA-expressed) CYP3A4 BACULOSOMES, probe Vivid green substrate 2 µM
[11] = recombinant (cDNA-expressed) CYP2D6 BACULOSOMES, probe Vivid blue substrate 10 µM
[12] = recombinant (cDNA-expressed) CYP1A2 BACULOSOMES, probe Vivid blue substrate 3 µM

Sequence of CYP2C19 (P33261 whole entry): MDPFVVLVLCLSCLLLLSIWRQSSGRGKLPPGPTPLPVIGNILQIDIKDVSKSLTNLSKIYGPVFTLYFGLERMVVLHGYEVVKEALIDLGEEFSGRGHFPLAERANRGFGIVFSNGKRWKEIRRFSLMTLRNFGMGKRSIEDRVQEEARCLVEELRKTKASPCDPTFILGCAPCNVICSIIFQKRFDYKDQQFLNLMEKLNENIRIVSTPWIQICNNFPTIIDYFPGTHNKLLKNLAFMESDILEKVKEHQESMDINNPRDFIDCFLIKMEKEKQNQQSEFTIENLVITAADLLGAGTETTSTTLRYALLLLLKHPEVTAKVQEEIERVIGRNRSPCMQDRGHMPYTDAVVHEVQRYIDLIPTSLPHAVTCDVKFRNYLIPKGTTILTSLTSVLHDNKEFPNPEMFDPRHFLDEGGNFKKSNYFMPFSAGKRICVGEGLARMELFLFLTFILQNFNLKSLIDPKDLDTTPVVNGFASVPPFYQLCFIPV
T3 sequence (P08684 whole entry): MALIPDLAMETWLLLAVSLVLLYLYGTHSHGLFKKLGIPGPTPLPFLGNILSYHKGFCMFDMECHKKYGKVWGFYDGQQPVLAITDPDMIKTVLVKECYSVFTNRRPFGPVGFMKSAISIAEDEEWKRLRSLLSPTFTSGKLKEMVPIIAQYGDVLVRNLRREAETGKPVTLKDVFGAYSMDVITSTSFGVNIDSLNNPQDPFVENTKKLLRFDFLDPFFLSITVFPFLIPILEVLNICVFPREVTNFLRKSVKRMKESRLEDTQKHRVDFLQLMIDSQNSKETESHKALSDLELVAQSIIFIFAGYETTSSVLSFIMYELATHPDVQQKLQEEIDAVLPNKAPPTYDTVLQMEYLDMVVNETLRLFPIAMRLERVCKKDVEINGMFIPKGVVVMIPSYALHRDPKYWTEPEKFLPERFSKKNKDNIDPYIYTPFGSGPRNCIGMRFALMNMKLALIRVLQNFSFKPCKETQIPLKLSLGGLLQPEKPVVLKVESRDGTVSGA
Sequence of CYP2D6 (P10635 whole entry): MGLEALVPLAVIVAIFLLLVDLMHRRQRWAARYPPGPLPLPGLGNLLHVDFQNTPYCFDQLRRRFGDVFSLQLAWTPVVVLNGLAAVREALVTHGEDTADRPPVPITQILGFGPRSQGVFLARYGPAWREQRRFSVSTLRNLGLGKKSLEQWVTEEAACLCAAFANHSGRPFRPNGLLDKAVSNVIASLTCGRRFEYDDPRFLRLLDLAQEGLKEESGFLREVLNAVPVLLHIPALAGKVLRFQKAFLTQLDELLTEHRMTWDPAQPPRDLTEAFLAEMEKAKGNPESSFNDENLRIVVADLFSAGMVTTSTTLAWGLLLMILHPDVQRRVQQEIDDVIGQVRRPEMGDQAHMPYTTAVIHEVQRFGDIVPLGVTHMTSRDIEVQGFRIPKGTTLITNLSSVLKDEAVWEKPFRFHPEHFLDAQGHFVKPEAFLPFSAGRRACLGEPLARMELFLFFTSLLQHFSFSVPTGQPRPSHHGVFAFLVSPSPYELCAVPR
T1 sequence (P11712 whole entry): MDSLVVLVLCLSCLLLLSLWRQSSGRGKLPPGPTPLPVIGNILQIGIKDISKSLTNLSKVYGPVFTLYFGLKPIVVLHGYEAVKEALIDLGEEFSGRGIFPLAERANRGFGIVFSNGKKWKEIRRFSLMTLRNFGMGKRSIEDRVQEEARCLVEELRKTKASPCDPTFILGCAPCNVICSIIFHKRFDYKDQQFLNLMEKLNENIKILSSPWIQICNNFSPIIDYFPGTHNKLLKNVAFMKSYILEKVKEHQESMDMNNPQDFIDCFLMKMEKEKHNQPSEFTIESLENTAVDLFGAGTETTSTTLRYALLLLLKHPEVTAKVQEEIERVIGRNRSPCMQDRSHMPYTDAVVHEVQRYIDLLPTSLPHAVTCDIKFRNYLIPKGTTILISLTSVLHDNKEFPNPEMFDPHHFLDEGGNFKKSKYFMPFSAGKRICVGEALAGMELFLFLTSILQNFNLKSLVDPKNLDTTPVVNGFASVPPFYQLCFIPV

SMILES	IC50 [1, 7] [µM]	inhibition at 30 min, 50 µM [1, 8] [%]	IC50 [2] [µM]	IC50 [3] [µM]	inhibition at 30 min, 50 µM [3] [%]	IC50 [4] [µM]	inhibition at 30 min, 50 µM [4, 9] [%]	IC50 [5] [µM]	inhibition at 30 min, 50 µM [5, 10] [%]	IC50 [6] [µM]	inhibition at 30 min, 50 µM [6, 11] [%]	inhibition at 30 min, 50 µM [2, 12] [%]	Effect on CYP3A4 catalytic activity, Vivid red assay ([3]; red substrate)	IC50 [1] [µM]	inhibition at 30 min, 50 µM [1] [%]	inhibition at 30 min, 50 µM [2] [%]	inhibition at 30 min, 50 µM [4] [%]	inhibition at 30 min, 50 µM [5] [%]	inhibition at 30 min, 50 µM [6] [%]	IC50 ([4]; read-out: IC50 CYP2C19 blue, cDNA-expressed enzyme, Vivid blue substrate 10 µM) [µM]
CC(C)=CCC[C@](C)(O[C@@H]1O[C@H](CO[C@@H]2O[C@H](CO)[C@@H](O)[C@H](O)[C@H]2O)[C@@H](O)[C@H](O)[C@H]1O)[C@H]1CC[C@]2(C)[C@@H]1[C@H](O)C[C@@H]1[C@@]3(C)CC[C@H](O[C@@H]4O[C@H](CO)[C@@H](O)[C@H](O)[C@H]4O[C@@H]4O[C@H](CO)[C@@H](O)[C@H](O)[C@H]4O)C(C)(C)[C@@H]3CC[C@]12C [Rb1]	> 50	25.2	37.8	> 100	4.4	> 100	20.6	> 100	10.1	> 50	29.1	–	–	–	–	–	–	–	–	–
CC(C)(O)CCC[C@@](C)(O)[C@H]1CC[C@]2(C)[C@@H]1[C@H](O)C[C@@H]1[C@@]3(C)CC[C@H](O)C(C)(C)[C@@H]3[C@@H](O)C[C@]12C [20(R)-25-OH-PPT]	8.5	–	> 100	–	–	43.9	–	27.2	–	> 50	10	16.9	activated the catalytic activity of CYP3A4	–	–	–	–	–	–	–
CC(C)=CCC[C@](C)(O)[C@H]1CC[C@]2(C)[C@@H]1[C@H](O)C[C@@H]1[C@@]3(C)CC[C@H](O)C(C)(C)[C@@H]3[C@@H](O[C@@H]3O[C@H](CO)[C@@H](O)[C@H](O)[C@H]3O[C@@H]3O[C@@H](C)[C@H](O)[C@@H](O)[C@H]3O)C[C@]12C [Rg2]	–	–	> 100	47	–	> 100	–	> 100	–	> 50	–	–	–	> 50	20.1	29.2	14.8	19.4	37.2	–
CC(C)=CCC[C@](C)(O[C@@H]1O[C@H](CO)[C@@H](O)[C@H](O)[C@H]1O)[C@H]1CC[C@]2(C)[C@@H]1[C@H](O)C[C@@H]1[C@@]3(C)CC[C@H](O)C(C)(C)[C@@H]3[C@@H](O[C@@H]3O[C@H](CO)[C@@H](O)[C@H](O)[C@H]3O[C@@H]3O[C@@H](C)[C@H](O)[C@@H](O)[C@H]3O)C[C@]12C [Re]	> 50	38	> 100	66.1	–	> 100	8.8	> 100	4.3	> 50	44.2	28.1	–	–	–	–	–	–	–	–
CC(C)=CCC[C@](C)(O)[C@H]1CC[C@]2(C)[C@@H]1[C@H](O)C[C@@H]1[C@@]3(C)CC[C@H](O[C@@H]4O[C@H](CO)[C@@H](O)[C@H](O)[C@H]4O[C@@H]4O[C@H](CO)[C@@H](O)[C@H](O)[C@H]4O)C(C)(C)[C@@H]3CC[C@]12C [Rg3]	18.5	–	32.4	25.2	–	47	–	86.4	–	9.3	–	–	–	–	–	–	–	–	–	–
Clc1ccc(COC(Cn2ccnc2)c2ccc(Cl)cc2Cl)c(Cl)c1 (stereo not shown) [miconazole nitrate salt, reference compound]	–	–	–	–	–	–	–	–	–	–	–	–	–	–	–	–	–	–	–	0.25
CC(C)=CCC[C@](C)(O)[C@H]1CC[C@]2(C)[C@@H]1[C@H](O)C[C@@H]1[C@@]3(C)CC[C@H](O)C(C)(C)[C@@H]3[C@@H](O)C[C@]12C [PPT, protopanaxatriol]	31.6	–	> 100	> 100	39.4	46.9	–	7.4	–	> 50	18.9	13.1	–	–	–	–	–	–	–	–
CC(C)=CCC[C@@](C)(O)[C@H]1CC[C@]2(C)[C@@H]1[C@H](O)C[C@@H]1[C@@]3(C)CC[C@H](O)C(C)(C)[C@@H]3CC[C@]12C [20(R)-PPD]	6.7	–	> 100	58.6	–	19.2	–	10.3	–	> 50	34.9	17.1	–	–	–	–	–	–	–	–
CC(C)=CCC[C@](C)(O[C@@H]1O[C@H](CO[C@@H]2OC[C@@H](O)[C@H](O)[C@H]2O)[C@@H](O)[C@H](O)[C@H]1O)[C@H]1CC[C@]2(C)[C@@H]1[C@H](O)C[C@@H]1[C@@]3(C)CC[C@H](O[C@@H]4O[C@H](CO)[C@@H](O)[C@H](O)[C@H]4O[C@@H]4O[C@H](CO)[C@@H](O)[C@H](O)[C@H]4O)C(C)(C)[C@@H]3CC[C@]12C [Rb3]	> 50	17.6	> 100	68.8	–	> 100	5	99.7	–	> 50	49.4	31.3	–	–	–	–	–	–	–	–
CC(C)=CCC[C@](C)(O[C@@H]1O[C@H](CO)[C@@H](O)[C@H](O)[C@H]1O)[C@H]1CC[C@]2(C)[C@@H]1[C@H](O)C[C@@H]1[C@@]3(C)CC[C@H](O)C(C)(C)[C@@H]3[C@@H](O[C@@H]3O[C@H](CO)[C@@H](O)[C@H](O)[C@H]3O)C[C@]12C [Rg1]	> 50	21.7	> 100	> 100	16.9	> 100	11.7	> 100	8.1	> 50	17.7	30.2	–	–	–	–	–	–	–	–
CC(C)=CCC[C@](C)(O[C@@H]1O[C@H](CO)[C@@H](O)[C@H](O)[C@H]1O)[C@H]1CC[C@]2(C)[C@@H]1[C@H](O)C[C@@H]1[C@@]3(C)CC[C@H](O)C(C)(C)[C@@H]3CC[C@]12C [C-K, ginsenoside Compound K]	9.1	–	23.8	9.1	–	45.9	–	30.5	–	> 50	49.4	–	–	–	–	–	–	–	–	–
